# The supplement of paper PMC10627819
# What was measured:
# S. aureus DSM 20231 [1] = assay: fitness (endpoint OD595 vs no drug) (fraction); higher = more growth
# Method in brief: (§1)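 Fitness is computed from the optical density at which cultures reach stationary phase, divided by the robust mean of no-drug control wells. Any value above 1 is set to 1. Cultures started at OD595 0.01 in 384-well plates with TSB, LB Lennox or CY at 37 °C, and OD595 was read every 30 min for 14 h against a first-reading background.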
# S. aureus Newman [2] = assay: as above
# Method in brief: as §1
# S. pneumoniae D39V [3] = assay: as above
# Method in brief: as §1
# B. subtilis 168 = assay: Bliss interaction score (quartile over a dose matrix) (fitness difference); higher = more antagonism (negative = synergy)
# Method in brief: (§2)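 The Bliss score is observed minus expected fitness, where expected fitness is the product of the single-drug fitness values inferred from the combination data. Fitness is the OD595 at the onset of stationary phase over the plate's robust no-drug mean, capped at 1. Scores are summarised by quartiles over technical, biological and donor/recipient replicates.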
# S. aureus DSM 20231 [4] = assay: as above
# Method in brief: as §2
# S. aureus Newman [5] = assay: as above
# Method in brief: as §2
# S. pneumoniae D39V [6] = assay: as above
# Method in brief: as §2
# [7] = first compound 0.0625 µg/mL, partner 0.1875 µg/mL
# [8] = first compound 0.0625 µg/mL, partner 0.375 µg/mL
# [9] = first compound 0.0625 µg/mL, partner 0.75 µg/mL
# [10] = first compound 0.125 µg/mL, partner 0.1875 µg/mL
# [11] = first compound 0.125 µg/mL, partner 0.375 µg/mL
# [12] = first compound 0.125 µg/mL, partner 0.75 µg/mL
# [13] = first compound 0.125 µg/mL, partner 4 µg/mL
# [14] = first compound 0.125 µg/mL, partner 8 µg/mL
# [15] = first compound 0.125 µg/mL, partner 16 µg/mL
# [16] = first compound 0.125 µg/mL, partner 32 µg/mL, one replicate
# [17] = first compound 0.125 µg/mL, partner 64 µg/mL, one replicate
# [18] = first compound 0.25 µg/mL, partner 4 µg/mL
# [19] = first compound 0.25 µg/mL, partner 8 µg/mL
# [20] = first compound 0.25 µg/mL, partner 16 µg/mL
# [21] = first compound 0.25 µg/mL, partner 32 µg/mL, one replicate
# [22] = first compound 0.25 µg/mL, partner 64 µg/mL, one replicate
# [23] = first compound 0.5 µg/mL, partner 4 µg/mL
# [24] = first compound 0.5 µg/mL, partner 8 µg/mL
# [25] = first compound 0.5 µg/mL, partner 16 µg/mL
# [26] = first compound 0.5 µg/mL, partner 32 µg/mL, one replicate
# [27] = first compound 0.5 µg/mL, partner 64 µg/mL, one replicate
# 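Wherever Bliss interaction score (quartile over a dose matrix) is given: first quartile when negative (synergy) and third quartile when positive (antagonism).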
# 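Wherever fitness (endpoint OD595 vs no drug) is given: OD595 on entry to stationary phase over no-drug wells; at most 1.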
structure (smiles),measurement,setting,value
Cn1nnc(-c2ccc(-c3ccc(N4C[C@H](CO)OC4=O)cc3F)cn2)n1 [Tedizolid] + CN[C@H](CC(C)C)C(=O)N[C@H]1C(=O)N[C@@H](CC(N)=O)C(=O)N[C@H]2C(=O)N[C@H]3C(=O)N[C@H](C(=O)N[C@H](C(=O)O)c4cc(O)cc(O)c4-c4cc3ccc4O)[C@H](O)c3ccc(c(Cl)c3)Oc3cc2cc(c3O[C@@H]2O[C@H](CO)[C@@H](O)[C@H](O)[C@H]2O[C@H]2C[C@](C)(N)[C@H](O)[C@H](C)O2)Oc2ccc(cc2Cl)[C@H]1O [Vancomycin],fitness,S. aureus DSM 20231 [1]; [7],0.89
same,fitness,S. aureus DSM 20231 [1]; [8],0.891
same,fitness,S. aureus DSM 20231 [1]; [9],0.924
same,fitness,S. aureus DSM 20231 [1]; [10],0.754
same,fitness,S. aureus DSM 20231 [1]; [11],0.723
same,fitness,S. aureus DSM 20231 [1]; [12],0.867
same,fitness,"S. aureus DSM 20231 [1]; first compound 0.25 µg/mL, partner 0.1875 µg/mL",0.348
same,fitness,"S. aureus DSM 20231 [1]; first compound 0.25 µg/mL, partner 0.375 µg/mL",0.377
same,fitness,"S. aureus DSM 20231 [1]; first compound 0.25 µg/mL, partner 0.75 µg/mL",0.397
same,fitness,S. aureus Newman [2]; [7],0.977
same,fitness,S. aureus Newman [2]; [8],0.966
same,fitness,S. aureus Newman [2]; [9],0.939
same,fitness,S. aureus Newman [2]; [10],0.87
same,fitness,S. aureus Newman [2]; [11],0.845
same,fitness,S. aureus Newman [2]; [12],0.824
same,fitness,"S. pneumoniae D39V [3]; first compound 0.03125 µg/mL, partner 0.125 µg/mL",0.976
same,fitness,"S. pneumoniae D39V [3]; first compound 0.0625 µg/mL, partner 0.125 µg/mL",0.968
same,fitness,"S. pneumoniae D39V [3]; first compound 0.125 µg/mL, partner 0.03125 µg/mL",0.809
same,fitness,"S. pneumoniae D39V [3]; first compound 0.125 µg/mL, partner 0.0625 µg/mL",0.819
same,fitness,"S. pneumoniae D39V [3]; first compound 0.125 µg/mL, partner 0.125 µg/mL",0.833
same,fitness,"S. pneumoniae D39V [3]; first compound 0.25 µg/mL, partner 0.03125 µg/mL",0.73
same,fitness,"S. pneumoniae D39V [3]; first compound 0.25 µg/mL, partner 0.0625 µg/mL",0.718
same,fitness,"S. pneumoniae D39V [3]; first compound 0.5 µg/mL, partner 0.03125 µg/mL",0.482
same,fitness,"S. pneumoniae D39V [3]; first compound 0.5 µg/mL, partner 0.0625 µg/mL",0.473
same,Bliss interaction score,B. subtilis 168,0.0605
same,Bliss interaction score,S. aureus DSM 20231 [4],-0.0656
same,Bliss interaction score,S. aureus Newman [5],0.046
same,Bliss interaction score,S. pneumoniae D39V [6],0.107
CO/N=C(\C(=O)N[C@@H]1C(=O)N2C(C(=O)[O-])=C(C[N+]3(C)CCCC3)CS[C@H]12)c1csc(N)n1 [Cefepime] + CN[C@@H]1[C@H](O)[C@H](NC)[C@H]2O[C@@]3(O)C(=O)C[C@@H](C)O[C@H]3O[C@@H]2[C@H]1O [Spectinomycin],fitness,S. aureus DSM 20231 [1]; [13],0.755
same,fitness,S. aureus DSM 20231 [1]; [14],0.865
same,fitness,S. aureus DSM 20231 [1]; [15],0.806
same,fitness,S. aureus DSM 20231 [1]; [16],0.736
same,fitness,S. aureus DSM 20231 [1]; [17],0.0956
same,fitness,S. aureus DSM 20231 [1]; [18],0.729
same,fitness,S. aureus DSM 20231 [1]; [19],0.849
same,fitness,S. aureus DSM 20231 [1]; [20],0.764
same,fitness,S. aureus DSM 20231 [1]; [21],0.669
same,fitness,S. aureus DSM 20231 [1]; [22],0.0736
same,fitness,S. aureus DSM 20231 [1]; [23],0.851
same,fitness,S. aureus DSM 20231 [1]; [24],0.861
same,fitness,S. aureus DSM 20231 [1]; [25],0.778
same,fitness,S. aureus DSM 20231 [1]; [26],0.647
same,fitness,S. aureus DSM 20231 [1]; [27],0.0704
same,fitness,S. aureus Newman [2]; [13],0.835
same,fitness,S. aureus Newman [2]; [14],0.864
same,fitness,S. aureus Newman [2]; [15],0.847
same,fitness,S. aureus Newman [2]; [16],0.418
same,fitness,S. aureus Newman [2]; [17],0.0932
same,fitness,S. aureus Newman [2]; [18],0.809
same,fitness,S. aureus Newman [2]; [19],0.805
same,fitness,S. aureus Newman [2]; [20],0.766
same,fitness,S. aureus Newman [2]; [21],0.372
same,fitness,S. aureus Newman [2]; [22],0.0802
same,fitness,S. aureus Newman [2]; [23],0.724
same,fitness,S. aureus Newman [2]; [24],0.742
same,fitness,S. aureus Newman [2]; [25],0.682
same,fitness,S. aureus Newman [2]; [26],0.182
same,fitness,S. aureus Newman [2]; [27],0.0762
same,fitness,"S. pneumoniae D39V [3]; first compound 0.007 µg/mL, partner 4 µg/mL",0.935
same,fitness,"S. pneumoniae D39V [3]; first compound 0.007 µg/mL, partner 8 µg/mL",0.943
same,fitness,"S. pneumoniae D39V [3]; first compound 0.007 µg/mL, partner 16 µg/mL",0.916
same,fitness,"S. pneumoniae D39V [3]; first compound 0.0078 µg/mL, partner 4 µg/mL, one replicate",≥ 1
same,fitness,"S. pneumoniae D39V [3]; first compound 0.0078 µg/mL, partner 8 µg/mL, one replicate",0.999
same,fitness,"S. pneumoniae D39V [3]; first compound 0.014 µg/mL, partner 4 µg/mL",0.935
same,fitness,"S. pneumoniae D39V [3]; first compound 0.014 µg/mL, partner 8 µg/mL",0.974
same,fitness,"S. pneumoniae D39V [3]; first compound 0.014 µg/mL, partner 16 µg/mL",0.918
same,fitness,"S. pneumoniae D39V [3]; first compound 0.0155 µg/mL, partner 4 µg/mL, one replicate",0.988
same,fitness,"S. pneumoniae D39V [3]; first compound 0.0155 µg/mL, partner 8 µg/mL, one replicate",≥ 1
same,fitness,"S. pneumoniae D39V [3]; first compound 0.028 µg/mL, partner 4 µg/mL",0.877
same,fitness,"S. pneumoniae D39V [3]; first compound 0.028 µg/mL, partner 8 µg/mL",0.873
same,fitness,"S. pneumoniae D39V [3]; first compound 0.028 µg/mL, partner 16 µg/mL",0.876
same,fitness,"S. pneumoniae D39V [3]; first compound 0.031 µg/mL, partner 4 µg/mL, one replicate",0.577
same,fitness,"S. pneumoniae D39V [3]; first compound 0.031 µg/mL, partner 8 µg/mL, one replicate",0.716
same,Bliss interaction score,B. subtilis 168,-0.0538
same,Bliss interaction score,S. aureus DSM 20231 [4],-0.0966
same,Bliss interaction score,S. aureus Newman [5],-0.0659
same,Bliss interaction score,S. pneumoniae D39V [6],0.147
